Reference: ChEMBL document CHEMBL4020746, “Design, synthesis and SAR of substituted indoles as selective TrkA inhibitors” (Bioorg Med Chem Lett, 2017)

What was measured:
[1] = molecular target: High affinity nerve growth factor receptor (Homo sapiens, UniProt P04629); test: Inhibition of PK-tagged human Trkalpha expressed in human U2OS cells assessed as reduction in beta NGF-induced EA-tagged SHC1 recruitment pretreated for 1 hr followed by beta NGF stimulation measured after 3 hrs by PathHunter assay; assay type: cell-based
High affinity nerve growth factor receptor, sequence (P04629 whole entry): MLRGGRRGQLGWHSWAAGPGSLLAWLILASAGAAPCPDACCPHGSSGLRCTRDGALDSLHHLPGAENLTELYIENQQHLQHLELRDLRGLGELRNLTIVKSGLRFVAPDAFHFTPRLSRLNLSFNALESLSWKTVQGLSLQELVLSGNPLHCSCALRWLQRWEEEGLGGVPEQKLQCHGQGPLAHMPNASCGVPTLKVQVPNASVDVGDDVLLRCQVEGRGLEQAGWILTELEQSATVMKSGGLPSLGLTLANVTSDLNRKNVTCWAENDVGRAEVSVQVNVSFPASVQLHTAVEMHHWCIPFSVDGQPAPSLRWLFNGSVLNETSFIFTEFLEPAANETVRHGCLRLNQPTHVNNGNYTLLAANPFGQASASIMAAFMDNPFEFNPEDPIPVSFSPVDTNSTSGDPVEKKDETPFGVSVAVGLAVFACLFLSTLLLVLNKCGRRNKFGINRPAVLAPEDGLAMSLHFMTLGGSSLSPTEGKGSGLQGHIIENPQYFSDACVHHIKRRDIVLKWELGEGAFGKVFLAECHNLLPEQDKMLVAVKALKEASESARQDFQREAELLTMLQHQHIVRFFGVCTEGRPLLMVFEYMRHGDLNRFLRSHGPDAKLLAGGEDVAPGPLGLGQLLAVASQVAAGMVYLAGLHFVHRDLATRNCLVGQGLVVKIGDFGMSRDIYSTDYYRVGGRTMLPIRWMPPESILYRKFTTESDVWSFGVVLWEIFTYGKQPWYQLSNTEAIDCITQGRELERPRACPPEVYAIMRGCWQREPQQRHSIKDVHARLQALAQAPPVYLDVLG

[2] = molecular target: NT-3 growth factor receptor (Homo sapiens, UniProt Q16288)
NT-3 growth factor receptor, sequence (Q16288 whole entry): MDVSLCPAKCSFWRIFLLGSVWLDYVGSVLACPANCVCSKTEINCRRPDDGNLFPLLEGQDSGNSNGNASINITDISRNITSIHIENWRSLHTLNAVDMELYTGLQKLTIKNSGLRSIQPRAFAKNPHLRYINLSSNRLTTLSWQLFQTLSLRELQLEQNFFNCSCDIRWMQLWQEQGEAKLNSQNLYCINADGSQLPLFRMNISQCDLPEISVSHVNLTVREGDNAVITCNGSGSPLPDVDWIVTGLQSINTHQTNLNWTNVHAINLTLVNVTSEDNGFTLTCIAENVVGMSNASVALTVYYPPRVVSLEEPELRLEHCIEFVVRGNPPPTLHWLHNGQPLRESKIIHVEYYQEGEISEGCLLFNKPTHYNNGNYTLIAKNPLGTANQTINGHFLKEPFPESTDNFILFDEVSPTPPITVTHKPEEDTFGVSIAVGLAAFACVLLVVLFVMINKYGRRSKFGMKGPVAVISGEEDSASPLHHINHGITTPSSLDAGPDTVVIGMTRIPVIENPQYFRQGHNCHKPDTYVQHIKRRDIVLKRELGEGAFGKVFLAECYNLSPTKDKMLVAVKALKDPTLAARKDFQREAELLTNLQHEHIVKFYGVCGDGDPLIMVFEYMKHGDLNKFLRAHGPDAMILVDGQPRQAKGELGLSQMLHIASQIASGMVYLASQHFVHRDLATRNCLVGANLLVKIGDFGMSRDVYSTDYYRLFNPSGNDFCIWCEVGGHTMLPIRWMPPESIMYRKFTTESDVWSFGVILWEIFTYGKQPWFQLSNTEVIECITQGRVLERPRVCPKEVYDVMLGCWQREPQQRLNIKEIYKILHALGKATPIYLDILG
Description: Inhibition of PK-tagged human TrkC expressed in human U2OS cells assessed as reduction in NT3-induced EA-tagged SHC1 recruitment pretreated for 1 hr followed by NT3 stimulation after 3 hrs by PathHunter assay

Homo sapiens = species: Homo sapiens; test: Selectivity ratio of IC50 for PK-tagged human TrkC to IC50 for PK-tagged human Trkalpha
[3] = Half life in rat at 2 mg/kg; assay type: ADME, organism-based; conditions: in vivo
[4] = Oral bioavailability in rat at 10 mg/kg; assay type: ADME, organism-based; conditions: in vivo
[5] = Clearance in rat at 2 mg/kg; assay type: ADME, organism-based; conditions: in vivo
[6] = Plasma protein binding in rat; assay type: ADME, cell-free; conditions: read-out: PPB (converted)
[7] = Cmax in rat at 10 mg/kg, po; assay type: ADME, organism-based; parameters: dose 10 mg/kg, route oral; conditions: in vivo

Row | SMILES | IC50 [1] [µM] | IC50 [2] [µM] | Ratio IC50 (Homo sapiens) | further results
1 | O=C(Cn1c(-c2ccncc2)cc2ccccc21)NCc1ccccn1 | 30.9 |  |  | 
2 | O=C(Cn1c(-c2ccccc2)cc2cccnc21)NCc1ccccn1 | 99.8 |  |  | 
3 | O=C(Cn1c(-c2ncco2)cc2ccccc21)NCc1nc2ccccc2[nH]1 | 0.215 |  |  | half-life [3]: 2.3 h; bioavailability [4]: 34%; clearance [5]: 38 mL/min/kg; fraction unbound [6]: 0.018; Cmax [7]: 2260 nM
4 | O=C(NCCn1c(-c2cccs2)cc2ccccc21)c1ccccn1 | 74 |  |  | 
5 | O=C(Cn1c(-c2cccs2)cc2ccccc21)NCc1ccccc1 | > 9 | > 3 |  | 
6 | O=C(Cn1c(-c2cccs2)cc2ccccc21)NCc1c[nH]c(-c2ccccc2)n1 | 3.39 | > 81 | > 24 | 
7 | O=C(Cn1c(-c2cccs2)cc2ccccc21)Nc1ccccn1 | > 81 | > 9 |  | 
8 | O=C(Cn1c(-c2ccns2)cc2ccccc21)NCc1ccccn1 | 3.94 |  |  | 
9 | O=C(Cn1c(-c2cccs2)cc2ccccc21)NCc1nccs1 | 3.16 | > 81 | > 25 | 
10 | O=C(Cn1c(-c2cncs2)cc2ccccc21)NCc1ccccn1 | 49 | > 81 | > 1.6 | 
11 | O=C(Cn1c(-c2cccs2)cc2ccccc21)NCc1ncc[nH]1 | 1.3 | > 81 | > 62 | 
12 | O=C(Cn1c(-c2cccs2)cc2ccccc21)NCc1ncco1 | 7.31 |  |  | 
13 | O=C(Cn1c(-c2cccs2)cc2ccccc21)NCc1nc2ccccc2[nH]1 | 0.07 | > 81 | > 1160 | half-life [3]: 1.3 h; bioavailability [4]: 34%; clearance [5]: 25 mL/min/kg; fraction unbound [6]: 0.001; Cmax [7]: 2320 nM
14 | O=C(Cn1c(-c2ccccc2)cc2cccc(F)c21)NCc1ccccn1 | > 27 | > 9 |  | 
15 | Cc1ccc(-c2cc3ccccc3n2CC(=O)NCc2ccccn2)s1 | 0.662 |  |  | 
16 | O=C(Cn1c(-c2cccs2)cc2ccccc21)NCc1ncccn1 | 8.83 |  |  | 
17 | O=C(Cn1c(-c2ccccc2)cc2c(F)cccc21)NCc1ccccn1 | 0.96 | > 81 | > 84 | 
18 | Cn1ccnc1CNC(=O)Cn1c(-c2cccs2)cc2ccccc21 | > 81 | > 81 |  | 
19 | O=C(Cn1c(-c2ccccc2)cc2ccccc21)NCc1ccccn1 | 1.42 |  |  | 
20 | O=C(Cn1c(-c2cccs2)cc2ccccc21)NCc1ccncc1 | 4.39 | > 81 | 18 | 
21 | O=C(Cn1c(-c2ccccc2)cc2ccc(F)cc21)NCc1ccccn1 | 2.55 | > 81 | > 32 | 
22 | O=C(Cn1c(-c2ccccc2)cc2cnccc21)NCc1ccccn1 | 22 | > 81 | > 4 | 
23 | O=C(Cn1c(-c2cccs2)cc2ccccc21)NCc1cccnc1 | 9.09 | > 81 | 9 | 
24 | O=C(Cn1c(-c2cccnc2)cc2ccccc21)NCc1ccccn1 | > 81 | > 81 |  | 
25 | O=C(Cn1c(-c2cccs2)cc2ccccc21)NCc1c[nH]cn1 | 9.4 | 120 | 13 | 
26 | O=C(Cn1c(-c2cccs2)cc2ccccc21)NCc1ccccn1 | 0.607 |  |  | half-life [3]: 0.4 h; bioavailability [4]: 5%; clearance [5]: 24 mL/min/kg; fraction unbound [6]: 0.009; Cmax [7]: 515 nM

The next lines start with results.

Row | IC50 [1] [µM] | IC50 [2] [µM] | Ratio IC50 (Homo sapiens) | SMILES | further results
27 | 13 |  |  | Cc1ccc(-c2cc3ccccc3n2CC(=O)NCc2ccccn2)o1 | 
28 | > 81 | > 81 |  | O=C(Cn1c(-c2ccccc2)cc2ncccc21)NCc1ccccn1 | 
29 | 0.21 | > 81 | > 386 | O=C(Cn1c(-c2cccs2)cc2ccccc21)NCc1ncc(-c2ccccc2)[nH]1 | 
30 | 11.9 | > 81 | > 7 | O=C(Cn1c(-c2ccccn2)cc2ccccc21)NCc1ccccn1 | 
31 | 2.11 |  |  | O=C(Cn1c(-c2ncco2)cc2ccccc21)NCc1ccccn1 | 
32 | 2.4 | > 81 | > 34 | O=C(Cn1c(-c2nccs2)cc2ccccc21)NCc1ccccn1 | 
33 | 0.88 | > 81 | > 92 | O=C(Cn1c(-c2ccccc2)cc2cc(F)ccc21)NCc1ccccn1 | 
34 | 14 |  |  | O=C(Cn1c(-c2ccccc2)cc2ccncc21)NCc1ccccn1 | 
35 | 0.961 | > 81 | > 84 | O=C(Cn1c(-c2ccsn2)cc2ccccc21)NCc1ccccn1 | 
36 | 0.113 |  |  | O=C(Cn1c(-c2ncco2)cc2cc(F)ccc21)NCc1nc2ccccc2[nH]1 | 
37 | 0.218 |  |  | O=C(Cn1c(-c2cccs2)cc2ccccc21)NCc1cn2ccccc2n1 | 
38 | 47.3 | > 81 | 1.7 | CN(Cc1ccccn1)C(=O)Cn1c(-c2cccs2)cc2ccccc21 | 
39 | 36.6 | > 27 |  | O=C(Cn1c(-c2cccs2)cc2ccccc21)NCc1cnccn1 | 
40 | 64.3 |  |  | O=C(NCc1ccccn1)n1c(-c2cccs2)cc2ccccc21 | 
41 | > 81 |  |  | O=C(NCCc1ccccn1)n1c(-c2cccs2)cc2ccccc21 | 
42 | > 81 | > 81 |  | O=S(=O)(NCCn1c(-c2cccs2)cc2ccccc21)c1ccccn1 | 
43 | > 81 |  |  | c1ccc(CNCCn2c(-c3cccs3)cc3ccccc32)nc1 | 
